This data set has as its system CCRIS mutagenicity, Ames/micronucleus/aberration tests. Nature of the data set: CCRIS mutagenicity studies. Particulars: Test System: AMES SALMONELLA TYPHIMURIUM
[1] abbreviates: Strain/Indicator: TA98, Metabolic Activation: NONE, Method: PREINCUBATION
Setting [2] is: Strain/Indicator: TA100, Metabolic Activation: NONE, Method: PREINCUBATION
Where [3] appears, read: Strain/Indicator: TA98, Metabolic Activation: NONE, Method: STANDARD PLATE.
[4] abbreviates: Strain/Indicator: TA100, Metabolic Activation: NONE, Method: STANDARD PLATE.

We go through six compounds from PubChem BioAssay AID1259407 (Chemical Carcinogenesis Research Information System (CCRIS), 2018).

Active and inactive are the calls of the source. The rule behind the calls is not given here.

Take `O=C(OCC(COC(=O)c1ccccc1)(COC(=O)c1ccccc1)COC(=O)c1ccccc1)c1ccccc1`: the mutagenic call was “inactive; negative” (Strain/Indicator: TA97, Metabolic Activation: HAMSTER, LIVER, S-9, AROCLOR 1254 (10 OR 30%), Method: PREINCUBATION); “inactive; negative” (Strain/Indicator: TA97, Metabolic Activation: NONE, Method: PREINCUBATION); “inactive; negative” (Strain/Indicator: TA97, Metabolic Activation: RAT, LIVER, S-9, AROCLOR 1254 (10 OR 30%), Method: PREINCUBATION); “inactive; negative” (Strain/Indicator: TA98, Metabolic Activation: HAMSTER, LIVER, S-9, AROCLOR 1254 (10 OR 30%), Method: PREINCUBATION); “inactive; negative” under setting [1]; “inactive; negative” (Strain/Indicator: TA98, Metabolic Activation: RAT, LIVER, S-9, AROCLOR 1254 (10 OR 30%), Method: PREINCUBATION). Also, the mutagenic call (Strain/Indicator: TA100, Metabolic Activation: HAMSTER, LIVER, S-9, AROCLOR 1254 (10 OR 30%), Method: PREINCUBATION) is “inactive; negative”; the mutagenic call under setting [2] was “inactive; negative”; the mutagenic call (Strain/Indicator: TA100, Metabolic Activation: RAT, LIVER, S-9, AROCLOR 1254 (10 OR 30%), Method: PREINCUBATION) is “inactive; negative”; the mutagenic call (Strain/Indicator: TA1535, Metabolic Activation: HAMSTER, LIVER, S-9, AROCLOR 1254 (10 OR 30%), Method: PREINCUBATION) is “inactive; negative”; the mutagenic call (Strain/Indicator: TA1535, Metabolic Activation: NONE, Method: PREINCUBATION) is “inactive; negative”; the mutagenic call (Strain/Indicator: TA1535, Metabolic Activation: RAT, LIVER, S-9, AROCLOR 1254 (10 OR 30%), Method: PREINCUBATION) is “inactive; negative”. For the same compound, the mutagenic call reads like this: (Strain/Indicator: TA1537, Metabolic Activation: HAMSTER, LIVER, S-9, AROCLOR 1254 (30%), Method: PREINCUBATION) “inactive; negative”; (Strain/Indicator: TA1537, Metabolic Activation: NONE, Method: PREINCUBATION) “inactive; negative”; (Strain/Indicator: TA1537, Metabolic Activation: RAT, LIVER, S-9, AROCLOR 1254 (30%), Method: PREINCUBATION) “inactive; negative”.

For `C[Si](C)(C)CN=[N+]=[N-]`, the mutagenic call runs as follows: under setting [2], “inactive; negative”; (Strain/Indicator: TA100, Metabolic Activation: RAT, LIVER, S-9, PCB, Method: PREINCUBATION) “active; positive”.

Take `CC(=O)CCC(C)=O`: the mutagenic call is “inactive; negative” under setting [1]; “inactive; negative” (Strain/Indicator: TA98, Metabolic Activation: RAT, LIVER, S-9, AROCLOR 1254, Method: PREINCUBATION); “inactive; negative” under setting [2]; “inactive; negative” (Strain/Indicator: TA100, Metabolic Activation: RAT, LIVER, S-9, AROCLOR 1254, Method: PREINCUBATION); “inactive; negative” (Strain/Indicator: TA102, Metabolic Activation: NONE, Method: PREINCUBATION); “inactive; negative” (Strain/Indicator: TA102, Metabolic Activation: RAT, LIVER, S-9, AROCLOR 1254, Method: PREINCUBATION).

In the case of `CC(O)/C=C/C=O` (configuration not stated), the mutagenic call (Strain/Indicator: TA104, Metabolic Activation: NONE, Method: PREINCUBATION) is “active; positive”.

In the case of `[N-]=[N+]=NC[C@H]1O[C@H](O)[C@H](O)[C@@H](O)[C@H]1O`, the mutagenic call under setting [3] is “inactive; negative” and the mutagenic call under setting [4] is “active; positive”.

Regarding `CCCCOc1cc(N=Nc2ccc(NCCO)cc2NCCO)ccc1N=Nc1c(S(=O)(=O)O)cc2ccc(N)cc2c1O`, the mutagenic call under setting [3] is “inactive; negative”; the mutagenic call (Strain/Indicator: TA98, Metabolic Activation: RAT, LIVER, S-9, AROCLOR 1254, Method: STANDARD PLATE) is “active; positive”; the mutagenic call under setting [4] was “inactive; negative”; the mutagenic call (Strain/Indicator: TA100, Metabolic Activation: RAT, LIVER, S-9, AROCLOR 1254, Method: STANDARD PLATE) was “inactive; negative”; the mutagenic call (Strain/Indicator: TA1538, Metabolic Activation: NONE, Method: STANDARD PLATE) was “inactive; negative”; the mutagenic call (Strain/Indicator: TA1538, Metabolic Activation: RAT, LIVER, S-9, AROCLOR 1254, Method: STANDARD PLATE) was “active; positive”.
